Starred links: 1 amine or outer side, 2 acyl side, 3 side chain; linkers in the order of their positions; H or OH if unused. Non-standard residues stand in square brackets, D forms with d. Residues, ends and D or L forms follow the SMILES beside them. Groups on a side chain read outwards from the residue. *: point of attachment. C18 diacid = O=C(O)CCCCCCCCCCCCCCCCC(=O)*; γGlu = O=C(O)[C@H](CCC(=O)[*:2])N[*:1]; Ac4c = NC1(C(=O)O)CCC1; AEEA = NCCOCCOCC(=O)O
Molecular target: T1, human glucagon receptor (Homo sapiens, UniProt P47871)
T1 construct: expressed in transfected cells; host or cells: membranes of BHK cells, clone BHK hGCGR A3*25
T1 sequence (P47871 26-477): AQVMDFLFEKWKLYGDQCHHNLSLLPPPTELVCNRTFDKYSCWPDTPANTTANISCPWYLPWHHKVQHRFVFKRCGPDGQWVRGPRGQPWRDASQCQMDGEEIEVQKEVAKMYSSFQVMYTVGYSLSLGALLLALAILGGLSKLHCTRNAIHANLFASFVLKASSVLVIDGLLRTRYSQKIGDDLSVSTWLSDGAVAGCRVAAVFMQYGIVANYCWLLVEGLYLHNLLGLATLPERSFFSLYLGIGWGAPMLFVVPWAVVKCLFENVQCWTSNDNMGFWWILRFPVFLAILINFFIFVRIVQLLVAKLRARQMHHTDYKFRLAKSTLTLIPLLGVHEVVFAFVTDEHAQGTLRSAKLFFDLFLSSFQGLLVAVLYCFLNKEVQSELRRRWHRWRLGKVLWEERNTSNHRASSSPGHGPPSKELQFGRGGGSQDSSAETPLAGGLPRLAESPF
Test: Assay (II)(b) glucagon receptor binding, 125I-glucagon displacement SPA on BHK membranes
Settings: without presence of serum albumin; read-out: GlucagonR IC50 (nM) [Assay (II)(b)]
Experimental: The glucagon receptor (glucagonR) binding activity is a measure of affinity of a derivative for the human glucagon receptor. The receptor binding of each compound to the human glucagon receptor was measured in a displacement binding assay. In this type of assay a labelled ligand (in this case 125I-glucagon) is bound to the receptor. Each derivative was added in a series of concentrations to isolated membranes containing the human glucagon receptor and displacement of the labelled ligand is monitored. The receptor binding was reported as the concentration at which half of the labelled ligand is displaced from the receptor, the IC50 value. In order to test the binding of the derivatives to albumin, the assay may be performed in a very low concentration of serum albumin (max. 0.001% final assay concentration) as well as in the presence of a higher concentration of serum albumin (0.2% final assay concentration). An increase of the IC50 value, in the presence of serum albumin indicates an affinity to serum albumin and represents a method to predict a protracted pharmacokinetic profile of the test substance in animal models. […] The protein concentration was determined. […]

SMILES: CC[C@H](C)[C@H](NC(=O)[C@H](CC(C)C)NC(=O)[C@H](Cc1c[nH]c2ccccc12)NC(=O)[C@H](CCC(N)=O)NC(=O)[C@@H](NC(=O)[C@H](Cc1ccccc1)NC(=O)[C@H](CCC(=O)O)NC(=O)[C@H](CCCNC(=N)N)NC(=O)[C@H](C)NC(=O)[C@H](CCCNC(=N)N)NC(=O)[C@H](CCCNC(=N)N)NC(=O)[C@H](CO)NC(=O)[C@H](CCC(=O)O)NC(=O)[C@H](CC(C)C)NC(=O)[C@H](Cc1ccc(O)cc1)NC(=O)[C@H](CCCCN)NC(=O)[C@H](CO)NC(=O)[C@H](CC(C)C)NC(=O)[C@H](CC(=O)O)NC(=O)[C@H](CO)NC(=O)[C@@H](NC(=O)[C@H](Cc1ccccc1)NC(=O)[C@@H](NC(=O)CNC(=O)[C@H](CCC(N)=O)NC(=O)C1(NC(=O)[C@@H](N)Cc2c[nH]cn2)CCC1)[C@@H](C)O)[C@@H](C)O)C(C)C)C(=O)N[C@@H](CCCCNC(=O)CNC(=O)[C@H](CO)NC(=O)[C@H](CCC(=O)O)NC(=O)CNC(=O)[C@H](CO)NC(=O)CC[C@H](NC(=O)CC[C@H](NC(=O)CCCCCCCCCCCCCCCCC(=O)O)C(=O)O)C(=O)O)C(=O)N[C@H](C(N)=O)[C@@H](C)O [Chem. 16, N^ε28-[2-[[(2S)-2-[[(2S)-4-carboxy-2-[[2-[[(2S)-2-[[(4S)-4-carboxy-4-[[(4S)-4-carboxy-4-(17-carboxyheptadecanoylamino)butanoyl]amino]butanoyl]amino]-3-hydroxypropanoyl]amino]acetyl]amino]butanoyl]amino]-3-hydroxypropanoyl]amino]acetyl]-[Acb2,Leu10,Glu15,Arg20,Glu21,Ile27,Lys28]-Glucagon amide] (HELM PEPTIDE1{H.[O=C(C1(N[*:1])CCC1)[*:2]].Q.G.T.F.T.S.D.L.S.K.Y.L.E.S.R.R.A.R.E.F.V.Q.W.L.I.K.T.[am]}|PEPTIDE2{[O=C(O)CCCCCCCCCCCCCCCCC(=O)[*:2]].[gGlu].[gGlu].S.G.E.S.G}$PEPTIDE1,PEPTIDE2,28:R3-8:R2$$$V2.0)
- IC50: 2.7 nM

SMILES: CC[C@H](C)[C@H](NC(=O)[C@H](CC(C)C)NC(=O)[C@H](Cc1c[nH]c2ccccc12)NC(=O)[C@H](CCC(N)=O)NC(=O)[C@@H](NC(=O)[C@H](Cc1ccccc1)NC(=O)[C@H](CCC(=O)O)NC(=O)[C@H](CCC(N)=O)NC(=O)[C@H](C)NC(=O)[C@H](CCCNC(=N)N)NC(=O)[C@H](CCCNC(=N)N)NC(=O)[C@H](CO)NC(=O)[C@H](CCC(=O)O)NC(=O)[C@H](CC(C)C)NC(=O)[C@H](Cc1ccc(O)cc1)NC(=O)[C@H](CCCCN)NC(=O)[C@H](CO)NC(=O)[C@H](CC(C)C)NC(=O)[C@H](CC(=O)O)NC(=O)[C@H](CO)NC(=O)[C@@H](NC(=O)[C@H](Cc1ccccc1)NC(=O)[C@@H](NC(=O)CNC(=O)[C@H](CCC(N)=O)NC(=O)C1(NC(=O)[C@@H](N)Cc2c[nH]cn2)CCC1)[C@@H](C)O)[C@@H](C)O)C(C)C)C(=O)N[C@@H](CCCCNC(=O)CC[C@H](NC(=O)COCCOCCNC(=O)COCCOCCNC(=O)CC[C@H](NC(=O)CC[C@H](NC(=O)CCCCCCCCCCCCCCCCC(=O)O)C(=O)O)C(=O)O)C(=O)O)C(=O)N[C@H](C(N)=O)[C@@H](C)O [Chem. 38, N^ε28-[(4S)-4-carboxy-4-[[2-[2-[2-[[2-[2-[2-[[(4S)-4-carboxy-4-[[(4S)-4-carboxy-4-(17-carboxyheptadecanoylamino)butanoyl]amino]butanoyl]amino]ethoxy]ethoxy]acetyl]amino]ethoxy]ethoxy]acetyl]amino]butanoyl]-[Acb2,Leu10,Glu15,Glu21,Ile27,Lys28]-Glucagon amide] (H-H[Ac4c]QGTFTSDLSKYLESRRAQEFVQWLIK([γGlu-AEEA-AEEA-γGlu-γGlu-C18 diacid])T-NH2; N-terminus assumed)
- IC50: 2.7 nM

Source: patent US10570184B2, “GLP-1/glucagon receptor co-agonists for medical use” (Novo Nordisk A/S, priority 2014, dated 2020)
